Common to all, as to assay type: cell-based
Assay [1] deals with DU145 prostate cancer cell line. Put plainly: MTS cell viability assay in DU145 cells. Conditions: DU145, 48 h. As to the method: (§1) IC50 of values of berbamine derivatives were determined in cancer cell lines DU145 and A2058 respectively. DU145 and A2058 cells (5,000 cells/well) were treated with berbamine derivatives in a dose-dependent manner (0.1 to 20 μM in 1% DMSO for 48 h. Then, MTS assay for cell viability were carried out to determine the IC50 values. Four samples were tested for each berbamine derivatives at each concentration in each cell line, and the averaged data were shown in Table 1 and FIGS. 1-8.

Assay [2] deals with A2058 human melanoma cell line. Put plainly: MTS cell viability assay in A2058 cells. Conditions: A2058, 48 h. How it is done: as §1
A general note: Formazan colour is commonly taken as a measure of viable cells.

The subject of assay [3] is Imatinib-resistant leukemia (K562/ADR) cells. The assay is described as follows: Cell viability in imatinib-resistant leukemia cells. As to the method:
Imatinib-resistant leukemia (K562/ADR) cells (5,000 cells/well) were treated with different concentrations (0.6-40 μM in DMSO) of BA #1, BA #3 and BA #4 respectively for 48 hours and cell viability was measured.

Assay [4] relates to Human normal dermal fibroblast (NHDF) cells. Put plainly: Cell viability in normal dermal fibroblasts.
Assay [5] concerns human erythroleukemia HEL (homozygous JAK2 V617F mutation) cells. The assay is described as follows: MTS cell viability assay in HEL cells. The conditions noted are these: HEL Jak2 V617 mutation, 48 h. How it is done: HEL Jak2 V617 mutation cells (10,000 cells/well) were treated with different concentration (0.1 μM to 20 μM in 1% DMSO of berbamine, BA #3, and BA #10 respectively for 48 h. Then, MTS assay for cell viability were carried out to determine the IC50 values. Four samples were tested for each test compound at each concentration, and the averaged data were shown in Table 3 and FIGS. 10-11.

Another assay deals with cancer cell lines. Put plainly: IC50 in cancer cell lines tested (summary statement). Conditions: summary over cell lines tested. From the text:
For example, berbamine derivatives (e.g. BA #3) show significant (at least 10-fold) improvement in activity over berbamine in cancer cell lines tested (e.g. K562/ADR). Berbamine derivatives (e.g. BA #3) also show inhibition of Jak2/Stat3 signaling in cancer cell lines (e.g. A2058, erythroleukemia HEL cells), and show down-regulation of Mcl-1 and Bcl-xL proteins.

Among the data in patent US9233976B2, “Berbamine derivatives” (CITY OF HOPE, priority 2009, dated 2016) are IC50 values, retold here.

Bounds are passed on as bounds.

As a reminder, the IC50 is the concentration that inhibits the measured activity by half. Low readings indicate greater potency in that assay, high ones weaker potency in that assay. In the case of `COc1cc2c3cc1Oc1c(OC)c(OC)cc4c1[C@@H](Cc1ccc(OCCCNC(=O)c5cncs5)c(c1)Oc1ccc(cc1)C[C@@H]3N(C)CC2)N(C)CC4` [BA #1], the IC50 in assay [1] was found to be 9.4 µM; in assay [2], 7.4 µM; in assay [3] (48 hours), 6.4 µM.

On to `COc1cc2c3cc1Oc1c(OC)c(OC)cc4c1[C@@H](Cc1ccc(OCCCNC(=O)c5cncs5)c(c1)Oc1ccc(cc1)C[C@@H]3N(C)CC2)N(C)CC4` [BA #2], for which the values for the IC50 in assay [1] and in assay [2] were 15.2 µM and 14.6 µM, respectively.

For `COc1cc2c3cc1Oc1c(OC)c(OC)cc4c1[C@@H](Cc1ccc(OCCCNC(=O)c5cncs5)c(c1)Oc1ccc(cc1)C[C@@H]3N(C)CC2)N(C)CC4` [BA #4], the IC50 in assay [1] stood at 15.5 µM; in assay [2], 14.3 µM; in assay [3] (48 hours), 3 µM.

With `COc1cc2c3cc1Oc1c(OC)c(OC)cc4c1[C@@H](Cc1ccc(OCCCNC(=O)c5cncs5)c(c1)Oc1ccc(cc1)C[C@@H]3N(C)CC2)N(C)CC4` [BA #5], the IC50 was 7.9 µM in assay [1] and 3.9 µM in assay [2].

Turning to `COc1cc2c3cc1Oc1c(OC)c(OC)cc4c1[C@@H](Cc1ccc(OCCCNC(=O)c5cncs5)c(c1)Oc1ccc(cc1)C[C@@H]3N(C)CC2)N(C)CC4` [BA #6], the figures for the IC50 in assay [1] and in assay [2] were 3.5 µM and 3.4 µM, respectively.

In the case of `COc1cc2c3cc1Oc1c(OC)c(OC)cc4c1[C@@H](Cc1ccc(OCCCNC(=O)c5cncs5)c(c1)Oc1ccc(cc1)C[C@@H]3N(C)CC2)N(C)CC4` [BA #7], the IC50 in assay [1] was 6.9 µM; in assay [2] it was 3.5 µM.

In the case of `COc1cc2c3cc1Oc1c(OC)c(OC)cc4c1[C@@H](Cc1ccc(OCCCNC(=O)c5cncs5)c(c1)Oc1ccc(cc1)C[C@@H]3N(C)CC2)N(C)CC4` [BA #8], the IC50 in assay [1] is 6.6 µM; in assay [2], 7.1 µM.

Turning to `COc1cc2c3cc1Oc1c(OC)c(OC)cc4c1[C@@H](Cc1ccc(OCCCNC(=O)c5cncs5)c(c1)Oc1ccc(cc1)C[C@@H]3N(C)CC2)N(C)CC4` [BA #9], the IC50 in assay [1] was 7.7 µM; in assay [2] it was 8.1 µM.

`COc1cc2c3cc1Oc1c(OC)c(OC)cc4c1[C@@H](Cc1ccc(OCCCNC(=O)c5cncs5)c(c1)Oc1ccc(cc1)C[C@@H]3N(C)CC2)N(C)CC4` [BA #10]: the IC50 was determined as 3.7 µM in assay [1]; 3.4 µM in assay [2]; 9.4 µM in assay [4] (Homo sapiens, 48 h); 2.8 µM in assay [5].

Consider `COc1cc2c3cc1Oc1c(OC)c(OC)cc4c1[C@@H](Cc1ccc(OCCCNC(=O)c5cncs5)c(c1)Oc1ccc(cc1)C[C@@H]3N(C)CC2)N(C)CC4` [BA #11], for which the results for the IC50 in assay [1] and in assay [2] were 12.3 µM and 8.3 µM, respectively.

Consider `COc1cc2c3cc1Oc1c(OC)c(OC)cc4c1[C@@H](Cc1ccc(OCCCNC(=O)c5cncs5)c(c1)Oc1ccc(cc1)C[C@@H]3N(C)CC2)N(C)CC4` [BA #12], for which the IC50 in assay [1] was determined as 5.6 µM; in assay [2], 3.3 µM; in assay [4] (48 hours), 9.2 µM.

As for `COc1cc2c3cc1Oc1c(OC)c(OC)cc4c1[C@@H](Cc1ccc(OCCCNC(=O)c5cncs5)c(c1)Oc1ccc(cc1)C[C@@H]3N(C)CC2)N(C)CC4` [BA #13], the values for the IC50 in assay [1] and in assay [2] were 13.6 µM and 8.2 µM, respectively.

Regarding `COc1cc2c3cc1Oc1c(OC)c(OC)cc4c1[C@@H](Cc1ccc(O)c(c1)Oc1ccc(cc1)C[C@@H]3N(C)CC2)N(C)CC4` [Berbamine], the IC50 was > 20 µM in assay [1] (Homo sapiens, DU-145, 48 h); > 20 µM in assay [2] (Homo sapiens); 8.9 µM in assay [3] (Homo sapiens, K562/Adr, 48 h); 24 µM in assay [4] (Homo sapiens, 48 h); 19.6 µM in assay [5]; > 20 µM in the assay on cancer cell lines.

Take `O=C1c2ccccc2C(=O)N1CCCOc1ccccc1` [Phthaloyl derivative, reference compound]: the IC50 was > 20 µM in assay [1] (Homo sapiens, DU-145, 48 h) and > 20 µM in assay [2] (Homo sapiens).
